Reference: patent US8957049B2, “Inhibitors of fatty acid amide hydrolase” (Infinity Pharmaceuticals, Inc., priority 2008, dated 2015)
Like-named read-outs stand apart in the source and are kept apart here.

Molecular target: T1, human FAAH (Homo sapiens, UniProt O00519)
T1 construct: host or cells: COS-7 cells, transient transfection (FuGENE 6); 13,000 g membrane fraction solubilised in 1% Triton X-100
T1 sequence (O00519 1-579): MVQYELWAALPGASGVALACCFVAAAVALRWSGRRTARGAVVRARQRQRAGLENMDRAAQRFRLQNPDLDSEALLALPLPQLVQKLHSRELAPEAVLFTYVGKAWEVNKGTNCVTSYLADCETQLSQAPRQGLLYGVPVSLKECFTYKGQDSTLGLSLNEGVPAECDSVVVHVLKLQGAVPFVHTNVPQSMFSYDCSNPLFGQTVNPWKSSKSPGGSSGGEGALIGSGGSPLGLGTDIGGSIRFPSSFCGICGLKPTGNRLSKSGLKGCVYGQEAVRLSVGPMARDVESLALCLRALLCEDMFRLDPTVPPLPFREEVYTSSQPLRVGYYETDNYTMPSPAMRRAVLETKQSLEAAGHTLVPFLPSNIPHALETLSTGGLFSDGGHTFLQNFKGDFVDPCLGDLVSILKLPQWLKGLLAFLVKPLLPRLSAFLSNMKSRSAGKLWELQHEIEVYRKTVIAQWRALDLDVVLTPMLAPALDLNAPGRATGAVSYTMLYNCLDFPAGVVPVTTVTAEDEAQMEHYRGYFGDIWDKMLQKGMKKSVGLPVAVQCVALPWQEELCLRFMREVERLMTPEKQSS
Experiment: Human FAAH biochemical inhibition assay (AMC arachidonoyl amide fluorescence)
Description: Exemplary compounds are set forth in the Examples provided below. Compounds were assayed as inhibitors of human FAAH using the method described in detail in Example 286.
The following assays may be used to determine the inhibition of FAAH by the compounds of the present invention: (1) a fluorescence-based assay for fatty acid amide hydrolase compatible with high-throughput screening as described in Manjunath et al., Analytical Biochemistry (2005) 343:143-151; and (2) a high-throughput screening for the discovery of inhibitors of fatty acid amide hydrolase using a microsome-based fluorescent assay. Wang et al., Biomolecular Screening (2006) 1-9.
COS-7 cells were split the day before, 1:5 into 150 mm×25 mm cell culture dishes (Corning Inc., Cat. No. 430599). Transient transfection took place at 30-40% confluency according to FuGENE 6 Transfection Reagent (Roche, Cat. No. 11814 443 001).
The FuGENE transfection 6 reagent (45 uL) was added to 1410 μL of media (DMEM, serum free without pen/strep) in a 15 mL conical tube and incubated at room temp for 5 minutes, followed by the addition of FAAH plasmid DNA (15 μg) (OriGene Cat. No. TC119221, Genbank Accession No. NM_001441.1, 0.67 ug/uL) and a further incubation of 15 minutes at room temperature. The resulting solution was added into one dish of 30-40% confluent COS-7 cells in a drop-wise manner. The COS-7 cell dish was subsequently incubated for 48 hours. The cells are then harvested.
Media was aspirated from the dishes and the cells rinsed with 10 mL PBS. The PBS was removed and 3 mL of PBS added to the dish. The dish was scraped to resuspend the cells, and the subsequent cell suspension collected into a 15 mL conical tube. The cells were pelleted by centrifugation at 1200 rpm for 5 minutes in a bench top centrifuge. PBS was removed and the cell pellet snap frozen in liquid nitrogen and stored at −80° C.
COS-7 Cells—FAAH Purification: • (1) Fractionation: Frozen cell pellets from transient transfections were thawed on ice and resuspended in 12.5 mM Hepes pH 8.0, 100 mM NaCl, 1 mM EDTA (10 mL/0.2 g cell pellet). The pellets were dounce homogenized and then sonicated to produce cell extract. The cell extract was subsequently centrifuged at 1000 g to remove cellular debris. The pellet was discarded and the supernatant centrifuged at 13,000 g for 20 minutes. The pellet contained membrane bound FAAH. The supernatant was discarded and the pellet resolubilized. • (2) Re-solubilization: The fraction of interest, (13,000 g, membrane fraction) was re-suspended in 2.3 mL re-suspension buffer (20 mM Hepes pH 7.8, 10% v/v Glycerol, 1 mM EDTA, 1% Triton X-100) and the sample incubated on ice for 1 hour and then centrifuged to remove any particulate matter. The supernatant containing solubilized human FAAH was aliquoted and snap frozen in liquid nitrogen and stored at −80° C. until use. • (3) Characterization: Protein Concentration determined by Bradford assay. • SDS gel and Western blot to confirm presence of FAAH • FAAH activity assay • Km determination—96-well assay • Linear dependence—96-well assay • Standard compound Ki determination—384-well assay
Rat FAAH biochemical assays were carried out in a 96 well flat bottom black non-treated polystyrene plates (Corning Costar Catalogue #3915). FAAH reaction buffer: 50 mM Hepes (pH 7.5), 1 mM EDTA, 0.2% Triton X-100. FAAH substrate—AMC Arachidonoyl Amide (Cayman Chemicals Company, Catalog #10005098). The reaction was read in an Envision microtiter plate reader [Excitation filter 355 nm (40 nm bandpass); Emmision filter 460 nm (25 nm bandpass)]. The raw fluorescence was plotted on the y axis and the inhibitor concentration on the x axis to give a dose response inhibition curve. The data was fitted to a single site competitive inhibition equation, fixing the Km for the rat and human enzyme to 12 μM and 9 μM respectively. […]

[1] = class given in each Example, read-out: Activity (Ki, inhibition of human FAAH)
[2] = Table A, read-out: Activity (Ki) of other boronic acids tested, Table A

Row | Compound | Ki [1] | Ki [2]
1 | CCCC1CC(c2ccccc2B(O)O)=NO1 (centres unmarked) [Compound 167] | 10 to 100 nM | –
2 | OB(O)c1ccc(C2CC(c3ccccc3)=NO2)cc1 (centres unmarked) [Compound 152] | ≤ 10 nM | –
3 | OB(O)c1ccc(-c2nnc(-c3ccccn3)o2)cc1 [Compound 65] | 10 to 100 nM | –
4 | O=C(Cc1c[nH]c2ccccc12)N/N=C/c1ccccc1B(O)O [Compound 122] | > 1000 nM | –
5 | CCCCCc1nnc(-c2coc(B(O)O)c2)o1 [Compound 60] | 10 to 100 nM | –
6 | OB(O)c1ccc(C2=NOC(c3ccccc3)C2)cc1 (centres unmarked) [Compound 159] | ≤ 10 nM | –
7 | CCCc1nnc(-c2ccc(B(O)O)c(-c3nnc(CCC)o3)c2)o1 [Compound 76] | ≤ 10 nM | –
8 | CN(c1ccccc1)c1ccc2cc(B(O)O)ccc2n1 [Compound 205] | 10 to 100 nM | –
9 | COC(=O)CCc1cc(OCCc2ccccc2)ccc1B(O)O [Compound 102] | 10 to 100 nM | –
10 | OB(O)c1ccc(-c2ccc(F)cc2)nc1 | – | 10 to 100 nM
11 | OB(O)c1ccc(-c2cnn(-c3ccccc3)c2)cc1 [Compound 232] | ≤ 10 nM | –
12 | CC(C)(C)OC(=O)NCC(=O)N/N=C/c1cc(OCc2ccccc2)ccc1B(O)O [Compound 117] | 10 to 100 nM | –
13 | COCCCc1cn(-c2ccccc2)nc1-c1ccc(B(O)O)cc1 [Compound 92] | > 1000 nM | –
14 | OB(O)c1ccc(C2=NOC(c3cccnc3)C2)cc1 (centres unmarked) [Compound 165] | 10 to 100 nM | –
15 | OB(O)c1ccc(-c2nnc(-c3cccc4c3OCC4)o2)cc1 [Compound 46] | ≤ 10 nM | –
16 | OB(O)c1ccc2nc(Oc3ccccc3)cnc2c1 [Compound 211] | 10 to 100 nM | –
17 | O=C(O)CCc1ccc(B(O)O)cc1 | – | > 1000 nM
18 | OB(O)c1ccccc1-c1nnc(-c2ccccc2)o1 [Compound 31] | > 1000 nM | –
19 | OB(O)c1ccc2nc(Oc3ccccc3O)ccc2c1 [Compound 199] | ≤ 10 nM | –
20 | OB(O)c1ccc(-c2cc(-c3ccccc3)no2)cc1 [Compound 156] | ≤ 10 nM | –
21 | OB(O)c1ccc(-c2cccc(-c3ccccc3)c2)cc1 [Compound 219] | 10 to 100 nM | –
22 | OB(O)c1ccc(-c2nnc(-c3ccccc3)o2)c(C(F)(F)F)c1 [Compound 81] | 100 to 1000 nM | –
23 | OB(O)c1ccc(-c2nc(-c3ccccc3)c[nH]2)cc1F [Compound 7] | > 1000 nM | –
24 | Cc1cc(Oc2ccccc2)nc2c(C)cc(B(O)O)cc12 [Compound 212] | 10 to 100 nM | –

Row | Compound | Ki [1] | Ki [2]
25 | CCCCCCc1nnc(-c2ccc(B(O)O)cc2)o1 [Compound 37] | ≤ 10 nM | –
26 | CCC/C=C/c1nnc(-c2ccc(B(O)O)cc2)o1 [Compound 25] | ≤ 10 nM | –
27 | OB(O)c1ccc(-n2cc(-c3ccccc3)nn2)cc1 [Compound 143] | ≤ 10 nM | –
28 | COc1cccc(Cn2cc(-c3ccc(B(O)O)cc3)nn2)c1 [Compound 128] | 10 to 100 nM | –
29 | O=C(N/N=C/c1cc(OCc2ccccc2)ccc1B(O)O)c1cccnc1 [Compound 125] | 10 to 100 nM | –
30 | Cc1cc2cc(B(O)O)ccc2nc1Oc1ccccc1 [Compound 210] | ≤ 10 nM | –
31 | CN(CCCc1ccc(B(O)O)cc1)S(=O)(=O)c1ccccc1 [Compound 238] | ≤ 10 nM | –
32 | OB(O)c1ccc(OCCc2ccccc2)cc1COCc1ccccc1 [Compound 97] | > 1000 nM | –
33 | OB(O)c1ccc(-c2ncc(-c3ccccc3)o2)cc1F [Compound 1] | 10 to 100 nM | –
34 | CCOCc1nnc(-c2ccc(B(O)O)cc2)o1 [Compound 74] | 10 to 100 nM | –
35 | COC(=O)Nc1ccc(B(O)O)cc1 | – | > 1000 nM
36 | CCCc1nc(-c2ccc(B(O)O)cc2)no1 [Compound 24] | ≤ 10 nM | –
37 | OB1c2ccc(OCc3ccccc3)cc2C=NN1Cc1ccccc1 [Compound 109] | 10 to 100 nM | –
38 | OB(O)c1ccc2nc(OC3CCCC3)ccc2c1 [Compound 190] | ≤ 10 nM | –
39 | NNC(=O)CCc1ccc(B(O)O)cc1 | – | 100 to 1000 nM
40 | CC/C=C/c1cc(OCCc2ccccc2)ccc1B(O)O [Compound 183] | 10 to 100 nM | –
41 | OCCN1N=Cc2cc(OCCc3ccccc3)ccc2B1O [Compound 107] | > 1000 nM | –
42 | Cc1cccc(Cn2cc(-c3ccc(B(O)O)cc3)nn2)c1 [Compound 129] | ≤ 10 nM | –
43 | OB(O)c1ccc2cc(Oc3ccccc3)ccc2c1 [Compound 216] | ≤ 10 nM | –
44 | O=C(/C=C/c1ccccc1B(O)O)NCc1ccccc1 [Compound 112] | 100 to 1000 nM | –
45 | CC(C)(C)OC(=O)NCCc1nnc(-c2ccc(B(O)O)cc2)o1 [Compound 82] | 10 to 100 nM | –
46 | OB(O)c1ccc(-n2cc(-c3ccccc3)nn2)cc1F [Compound 141] | 10 to 100 nM | –
47 | OB(O)c1ccc([C@@H]2OC[C@@H](c3ccccc3)O2)cc1 [Compound 181] | ≤ 10 nM | –

Now from value to molecule:

Row | Ki [1] | Ki [2] | Compound
48 | ≤ 10 nM | – | OB(O)c1ccc2oc(CCc3ccccc3)cc2c1 [Compound 291]
49 | 10 to 100 nM | – | CC(C)c1ccc(CN2CCC(c3ccc(B(O)O)cc3)CC2)cc1 [Compound 280]
50 | 100 to 1000 nM | – | CC(C)(C)OC(=O)N1CCN(C(=O)CCB(O)O)CC1 [Compound 323]
51 | ≤ 10 nM | – | OB(O)c1ccc2cn(CCc3ccccc3)nc2c1 [Compound 314]
52 | 100 to 1000 nM | – | CCCCOc1ccc2c(c1)C=NOB2O [Compound 277]
53 | 10 to 100 nM | – | O=S(=O)(c1ccccc1)N1CCC(Cc2nc3ccc(B(O)O)cc3o2)CC1 [Compound 305]
54 | ≤ 10 nM | – | OB(O)c1ccc(Oc2cncc(F)c2)cc1 [Compound 297]
55 | > 1000 nM | – | CC(C)Cc1nnc(-c2ccccc2B(O)O)o1 [Compound 284]
56 | ≤ 10 nM | – | CCCCCc1nc2ccc(B(O)O)cc2o1 [Compound 245]
57 | > 1000 nM | – | CCOc1nnc(-c2ccccc2B(O)O)o1 [Compound 286]
58 | ≤ 10 nM | – | O=C1c2ccc(B(O)O)cc2C(=O)N1Cc1ccccc1 [Compound 308]
59 | 100 to 1000 nM | – | OB(O)c1ccc(C2CCN(Cc3ccccc3)CC2)cc1 [Compound 279]
60 | > 1000 nM | – | CC(C)c1nnc(-c2ccccc2B(O)O)o1 [Compound 283]
61 | 10 to 100 nM | – | O=C1CC(c2nc3ccc(B(O)O)cc3o2)CN1c1ccccc1 (centres unmarked) [Compound 248]
62 | ≤ 10 nM | – | OB(O)c1ccc2nn(CCc3ccccc3)cc2c1 [Compound 315]
63 | 10 to 100 nM | – | OB(O)c1ccc2nc(CC3CCN(Cc4ccccc4)CC3)oc2c1 [Compound 302]
64 | > 1000 nM | – | OB(O)c1ccccc1-c1nnc(CCC(F)(F)F)o1 [Compound 285]
65 | > 1000 nM | – | OB1c2cscc2C=NN1Cc1ccccc1 [Compound 257]
66 | ≤ 10 nM | – | CC(C)(C)OC(=O)N1CCC(Cc2nc3ccc(B(O)O)cc3o2)CC1 [Compound 299]
67 | ≤ 10 nM | – | CCCc1nnc(-c2cc(OCCc3ccccc3)ccc2B(O)O)s1 [Compound 267]
68 | ≤ 10 nM | – | CCCCCN1C(=O)c2ccc(B(O)O)cc2C1=O [Compound 307]
